The text below walks through data of patent US9949929B2, “Drug carrier and manufacturing method thereof” (National Taiwan University Hospital, priority 2015, dated 2018).

Series [1] can be described thus: temperature increase of samples irradiated by near-infrared laser (photothermal). The conditions noted are these: near-infrared laser 1 W/cm^2, 650 nm. The series is classed as physicochemical. An excerpt: (§1) The drug carriers of example 1 and example 2 are used for preparing nanomicelles and drug-encapsulating nanomicelles so as to undergo the following tests. When preparing the nanomicelles, the dried drug carriers are uniformly dissolved in dimethyl sulfoxide (DMSO) to obtain a drug-carrier-DMSO solution. Next, the dimethyl sulfoxide (DMSO) in the drug-carrier-DMSO solution is removed by lyophilization, and the nanomicelles formed by self-assembly of the drug carriers are left. Last, the nanomicelles are put into a phosphate buffered saline (PBS) and sonicated for 20 min; therefore, the nanomicelles are uniformly dissolved in the phosphate buffered saline (PBS) for the following tests.
(§2) When preparing the drug-encapsulating nanomicelles, the drug molecules selected to be encapsulated in the nanomicelles are Doxorubicin (Doxo). First, the dried drug carriers and Doxorubicin molecules are uniformly dissolved in dimethyl sulfoxide (DMSO) to obtain a drug-carrier-Doxorubicin-DMSO solution. […]
Please refer to FIG. 5. […] When a temperature increase of samples irradiated by near-infrared light (NIR) is measured, the near-infrared light is a near-infrared laser, and the samples are the phosphate buffered saline (PBS), the Doxorubicin (Doxo), the nanomicelles and the drug-encapsulating nanomicelles which encapsulate the Doxorubicin (Doxo). […]

In another series the test system is cancer cells. As to the kind of experiment: cell viability of cancer cells treated with nanomicelles, drug-encapsulating nanomicelles or free Doxorubicin. Set-up: dose or concentration left out as unconfirmed. The series is classed as cell-based.
Excerpt: as §1
as §2, with “solution. Next, the dimethyl sulfoxide (DMSO) in the drug-carrier-Doxorubicin-DMSO solution is removed by lyophilization, and the drug-encapsulating nanomicelles formed by self-assembly of the drug carriers as well as Doxorubicin crystals which are not encapsulated in the drug-encapsulating nanomicelles are left.” for “solution.”

Regarding `COc1cccc2c1C(=O)c1c(O)c3c(c(O)c1C2=O)C[C@@](O)(C(=O)CO)C[C@@H]3O[C@H]1C[C@H](N)[C@H](O)[C@H](C)O1` [Doxorubicin (Doxo), Doxorubicin], in series [1], the “temperature change as irradiation time is increased” value is listed as “no significant change”. Also, the “cell viability of the cancer cell” value in the series with cancer cells was determined as 80%.
